US20100168179A1, “6-ALKENYL-, 6-ALKINYL- AND 6-EPOXY-EPOTHILONE DERIVATIVES, PROCESS FOR THEIR PRODUCTION, AND THEIR USE IN PHARMACEUTICAL PREPARATIONS” (priority 1999, published 2010)
Values belong to the compound of their own block, whether it stands above or below them.

Legend:
MCF-7 = experiment: growth inhibition of human MCF-7 breast carcinoma cell line, crystal-violet assay; assay type: cell-based
Text: (§1) In Vitro Activity of Epothilone Derivatives on Human Tumor Cell Lines
(§2) a) IC50 values [nM] for the growth inhibition of human MCF-7-breast and multi-drug-resistant NCl/ADR-carcinoma cell lines of epothilone derivatives with 13Z-unsaturated in the crystal-violet assay in comparison to Taxol.
(§3) b) IC50 values [nM] for the growth inhibition of human MCF-7-breast- and multi-drug-resistant NCl/ADR carcinoma cell lines of epothilone derivative with 13,14-α-epoxide, which was formed from the 13-Z-configured double bond in the crystal-violet assay in comparison to Taxol.
(§4) c) IC50 values [nM] for the growth inhibition of human MCF-7-breast- and multi-drug-resistant NCl/ADR-carcinoma cell lines of epothilone derivatives with 13,14-epoxide, which was formed from the 13-E-configured double bond, in a crystal-violet assay in comparison to Taxol.

NCl/ADR = experiment: growth inhibition of multi-drug-resistant NCl/ADR carcinoma cell line, crystal-violet assay; assay type: cell-based, human; settings: for IC50: crystal-violet assay, multi-drug-resistant line; for Selectivity = IC50-(NCl/ADR): IC50 (MCF-7): Table 1, ratio NCl/ADR to MCF-7
Text: as §1, §2, §3, §4

[1] = Table 3, 13,14-epoxide formed from the 13-E-configured double bond
[2] = Table 3, ratio NCl/ADR to MCF-7
[3] = Table 1, epothilone derivatives with 13Z-unsaturated
[4] = Table 2, 13,14-α-epoxide formed from the 13-Z-configured double bond
[5] = Table 2, ratio NCl/ADR to MCF-7

Structure (SMILES): C#CCC[C@H]1C(=O)C(C)(C)[C@@H](O)CC(=O)O[C@H](/C(C)=C/c2ccccn2)C[C@@H]2OC2(C)CCC[C@H](C)[C@@H]1O (single isomer, unassigned) [Example 6A or B]
IC50 (MCF-7; [1]): 4.3 nM
IC50 (NCl/ADR; [1]): 68 nM
Selectivity = IC50-(NCl/ADR): IC50-(MCF-7) (NCl/ADR; [2]): 15.8

Structure (SMILES): C#CCC[C@H]1C(=O)C(C)(C)[C@@H](O)CC(=O)O[C@H](/C(C)=C/c2ccccn2)C/C=C(/C)CCC[C@H](C)[C@@H]1O [Example 1, (4S,7R,8S,9S,13Z,16S(E))-4,8-Dihydroxy-16-(1-methyl-2-(2-pyridyl)ethenyl)-1-oxa-5,5,9,13-tetramethyl-7-(but-3-in-1-yl)-cyclohexadec-13-ene-2,6-dione]
IC50 (MCF-7; [3]): 30 nM
IC50 (NCl/ADR; [3]): 75 nM
Selectivity = IC50-(NCl/ADR): IC50 (MCF-7) (NCl/ADR): 2.5

Structure (SMILES): C=CCC[C@H]1C(=O)C(C)(C)[C@@H](O)CC(=O)O[C@H](/C(C)=C/c2ccccn2)C/C=C(/C)CCC[C@H](C)[C@@H]1O [Example 2, (4S,7R,8S,9S,13Z,16S(E))-4,8-Dihydroxy-16-(1-methyl-2-(2-pyridyl)ethenyl)-1-oxa-5,5,9,13-tetramethyl-7-(but-3-en-1-yl)-cyclohexadec-13-ene-2,6-dione]
IC50 (MCF-7; [3]): 25 nM
IC50 (NCl/ADR; [3]): 70 nM
Selectivity = IC50-(NCl/ADR): IC50 (MCF-7) (NCl/ADR): 2.8

Structure (SMILES): C#CCC[C@H]1C(=O)C(C)(C)[C@@H](O)CC(=O)O[C@H](/C(C)=C/c2ccccn2)C[C@@H]2O[C@]2(C)CCC[C@H](C)[C@@H]1O [Example 4A, (1S,3S(E),7S,10R,11S,12S,16R)-7,11-Dihydroxy-10-(but-3-in-1-yl)-3-(1-methyl-2-(2-pyridyl)ethenyl)-8,8,12,16-tetramethyl-4,17-dioxabicyclo[14.1.0]heptadecane-5,9-dione]
IC50 (MCF-7; [4]): 1.3 nM
IC50 (NCl/ADR; [4]): 9.1 nM
Selectivity = IC50-(NCl/ADR): IC50-(MCF-7) (NCl/ADR; [5]): 7.0

Structure (SMILES): C=CCC[C@H]1C(=O)C(C)(C)[C@@H](O)CC(=O)O[C@H](/C(C)=C/c2ccccn2)C[C@@H]2O[C@]2(C)CCC[C@H](C)[C@@H]1O [Example 5A, (1S,3S(E),7S,10R,11S,12S,16R)-7,11-Dihydroxy-10-(but-3-en-1-yl)-3-(1-methyl-2-(2-pyridyl)ethenyl)-8,8,12,16-tetramethyl-4,17-dioxabicyclo[14.1.0]heptadecane-5,9-dione]
IC50 (MCF-7; [4]): 3.1 nM
IC50 (NCl/ADR; [4]): 3.8 nM
Selectivity = IC50-(NCl/ADR): IC50-(MCF-7) (NCl/ADR; [5]): 1.2

Structure (SMILES): C=CC[C@H]1C(=O)C(C)(C)[C@@H](O)CC(=O)O[C@H](/C(C)=C/c2csc(C)n2)C/C=C(/C)CCC[C@H](C)[C@@H]1O [Example 9, (4S,7R,8S,9S,13Z,16S(E))-4,8-Dihydroxy-16-(1-methyl-2-(2-methylthiazol-4-yl)ethenyl)-1-oxa-5,5,9,13-tetramethyl-7-(prop-2-en-1-yl)-cyclohexadec-13-ene-2,6-dione]
IC50 (MCF-7; [3]): 17 nM
IC50 (NCl/ADR; [3]): 41 nM
Selectivity = IC50-(NCl/ADR): IC50 (MCF-7) (NCl/ADR): 2.4

Structure (SMILES): C=CC[C@H]1C(=O)C(C)(C)[C@@H](O)CC(=O)O[C@H](/C(C)=C/c2csc(C)n2)C[C@@H]2O[C@]2(C)CCC[C@H](C)[C@@H]1O [Example 10A, (1S,3S(E),7S,10R,11S,12S,16R)-7,11-Dihydroxy-10-(prop-2-en-1-yl)-3-(1-methyl-2-(2-methylthiazol-4-yl)ethenyl)-8,8,12,16-tetramethyl-4,17-dioxabicyclo[14.1.0]heptadecane-5,9-dione]
IC50 (MCF-7; [4]): 1.2 nM
IC50 (NCl/ADR; [4]): 3.6 nM
Selectivity = IC50-(NCl/ADR): IC50-(MCF-7) (NCl/ADR; [5]): 3.0

Structure (SMILES): C=CC[C@H]1C(=O)C(C)(C)[C@@H](O)CC(=O)O[C@H](/C(C)=C/c2csc(C)n2)C[C@H]2O[C@]2(C)CCC[C@H](C)[C@@H]1O [Example 12A or B, (1R,3S(E),7S,10R,11S,12S,16R)-7,11-Dihydroxy-10-(prop-2-en-1-yl)-3-(1-methyl-2-(2-methylthiazol-4-yl)ethenyl)-8,8,12,16-tetramethyl-4,17-dioxabicyclo[14.1.0]heptadecane-5,9-dione]
IC50 (MCF-7; [1]): 40 nM
IC50 (NCl/ADR; [1]): 61 nM
Selectivity = IC50-(NCl/ADR): IC50-(MCF-7) (NCl/ADR; [2]): 1.5

Structure (SMILES): C=CC[C@H]1C(=O)C(C)(C)[C@@H](O)CC(=O)O[C@H](c2ccc3oc(C)nc3c2)C/C=C(/C)CCC[C@H](C)[C@@H]1O [Example 21, (4S,7R,8S,9S,13Z,16S(E))-4,8-Dihydroxy-16-(2-methyl-benzoxazol-5-yl)-1-oxa-5,5,9,13-tetramethyl-7-(prop-2-en-1-yl)-cyclohexadec-13-ene-2,6-dione]
IC50 (MCF-7; [3]): 32 nM

Structure (SMILES): C#CC[C@H]1C(=O)C(C)(C)[C@@H](O)CC(=O)O[C@H](/C(F)=C/c2csc(C)n2)C/C=C(/C)CCC[C@H](C)[C@@H]1O [Example 23, (4S,7R,8S,9S,13Z,16S(Z))-4,8-Dihydroxy-16-(1-fluoro-2-(2-methylthiazol-4-yl)ethenyl)-7-(prop-2-in-1-yl)-1-oxa-5,5,9,13-tetramethyl-cyclohexadec-13-ene-2,6-dione]
IC50 (MCF-7; [3]): 11 nM
IC50 (NCl/ADR; [3]): 62 nM
Selectivity = IC50-(NCl/ADR): IC50 (MCF-7) (NCl/ADR): 5.6

More lines, main results first:

IC50 (MCF-7; [1]): 4.8 nM
IC50 (NCl/ADR; [1]): 53 nM
Selectivity = IC50-(NCl/ADR): IC50-(MCF-7) (NCl/ADR; [2]): 11.0
Structure (SMILES): C=CC[C@H]1C(=O)C(C)(C)[C@@H](O)CC(=O)O[C@H](/C(C)=C/c2csc(C)n2)CC2O[C@@]2(C)CCC[C@H](C)[C@@H]1O (single isomer, unassigned) [Example 12B or A]

IC50 (MCF-7; [3]): 34 nM
Structure (SMILES): C#CC[C@H]1C(=O)C(C)(C)[C@@H](O)CC(=O)O[C@H](/C(C)=C/c2ccccn2)C/C=C(/C)CCC[C@H](C)[C@@H]1O [Example 13, (4S,7R,8S,9S,13Z,16S(E))-4,8-Dihydroxy-16-(1-methyl-2-(2-pyridyl)ethenyl)-1-oxa-5,5,9,13-tetramethyl-7-(prop-2-in-1-yl)-cyclohexadec-13-ene-2,6-dione]

IC50 (MCF-7; [3]): 25 nM
Structure (SMILES): C=CC[C@H]1C(=O)C(C)(C)[C@@H](O)CC(=O)O[C@H](/C(C)=C/c2ccccn2)C/C=C(/C)CCC[C@H](C)[C@@H]1O [Example 15, (4S,7R,8S,9S,13Z,16S(E))-4,8-Dihydroxy-16-(1-methyl-2-(2-pyridyl)ethenyl)-1-oxa-5,5,9,13-tetramethyl-7-(prop-2-en-1-yl)-cyclohexadec-13-ene-2,6-dione]

IC50 (MCF-7; [4]): 2.3 nM
IC50 (NCl/ADR; [4]): 11 nM
Selectivity = IC50-(NCl/ADR): IC50-(MCF-7) (NCl/ADR; [5]): 4.8
Structure (SMILES): C#CC[C@H]1C(=O)C(C)(C)[C@@H](O)CC(=O)O[C@H](/C(F)=C/c2csc(C)n2)C[C@@H]2O[C@]2(C)CCC[C@H](C)[C@@H]1O [Example 25, (1S,3S(Z),7S,10R,11S,12S,16R)-7,11-Dihydroxy-3-(1-fluoro-2-(2-methyl-4-thiazolyl)ethenyl)-10-(prop-2-in-1-yl)-8,8,12,16-tetramethyl-4,17-dioxabicyclo[14.1.0]heptadecane-5,9-dione]

IC50 (MCF-7; [1]): 18 nM
IC50 (NCl/ADR; [1]): 60 nM
Selectivity = IC50-(NCl/ADR): IC50-(MCF-7) (NCl/ADR; [2]): 3.3
Structure (SMILES): C#CC[C@H]1C(=O)C(C)(C)[C@@H](O)CC(=O)O[C@H](/C(F)=C/c2csc(C)n2)C[C@@H]2O[C@@]2(C)CCC[C@H](C)[C@@H]1O [Example 26A or B, (1S,3S(Z),7S,10R,11S,12S,16S)-7,11-Dihydroxy-3-(1-fluoro-2-(2-methyl-4-thiazolyl)ethenyl)-10-(prop-2-in-1-yl)-8,8,12,16-tetramethyl-4,17-dioxabicyclo[14.1.0]heptadecane-5,9-dione]

IC50 (MCF-7; [3]): 25 nM
IC50 (NCl/ADR; [3]): 41 nM
Selectivity = IC50-(NCl/ADR): IC50 (MCF-7) (NCl/ADR): 1.6
Structure (SMILES): C#CC[C@H]1C(=O)C(C)(C)[C@@H](O)CC(=O)O[C@H](/C(F)=C/c2coc(C)n2)C/C=C(/C)CCC[C@H](C)[C@@H]1O [Example 27, (4S,7R,8S,9S,13Z,16S(Z))-4,8-Dihydroxy-16-(1-fluoro-2-(2-methyloxazol-4-yl)ethenyl)-7-(prop-2-in-1-yl)-1-oxa-5,5,9,13-tetramethyl-cyclohexadec-13-ene-2,6-dione]

IC50 (MCF-7; Homo sapiens, MCF7, Table 1, epothilone derivatives with 13Z-unsaturated): 3.5 nM
IC50 (NCl/ADR; Homo sapiens, Table 1, epothilone derivatives with 13Z-unsaturated): > 100 nM
Selectivity = IC50-(NCl/ADR): IC50 (MCF-7) (NCl/ADR): >28.6
IC50 (NCl/ADR; [4]): > 100 nM
Selectivity = IC50-(NCl/ADR): IC50-(MCF-7) (NCl/ADR; [5]): >29
IC50 (NCl/ADR; [1]): > 100 nM
Selectivity = IC50-(NCl/ADR): IC50-(MCF-7) (NCl/ADR; [2]): >29
Structure (SMILES): CC(=O)O[C@H]1C(=O)[C@@]2(C)[C@H]([C@H](OC(=O)c3ccccc3)[C@]3(O)C[C@H](OC(=O)[C@H](O)[C@@H](NC(=O)c4ccccc4)c4ccccc4)C(C)=C1C3(C)C)[C@]1(OC(C)=O)CO[C@@H]1C[C@@H]2O [Taxol, reference compound]
action on the multi-drug-resistant cell line NCl/ADR (NCl/ADR; in words, in comparison to Taxol): not exhibited
